Data on 1 substance can be found in US6740304B2, “Receptor binding conjugates” (priority 1999, dated 2004).

The target in this assay is T1, folate binding protein (FBP) (Bos taurus, UniProt P02702).
T1 construct: purchased Sigma
Put plainly: Binding assay on immobilised folate binding protein (Scatchard type plot). The following applies: Scatchard type plot (FIG. 1), for the conjugate assuming at least one binding-reactive folic acid per HIgG. The text has this:
Immobilised folate binding protein (FBP) was used to investigate the binding characteristics of the folic acid conjugates. FBP (Sigma) with a binding capacity of […] folic acid per milligram protein was immobilised on high protein binding 96 well EIA/RIA assay plates (Costar Corning Inc. N.Y., USA)
FBP was labelled with ^125I by the Iodogen method and the labelled protein was isolated by eluting the reaction mixture on a PD-10 column. Purified ^125I-FBP in concentrations ranging form […] in PBS were added in to the 96 well assay plates and incubated on a rotating rack at 4° C. overnight. […] The immobilised quantities of the various concentrations of quadruplicates of ^125I FBP was determined as the ratio of L3/L1+L2 after measuring the radioactivity of the respective samples by liquid scintillation counting.
Wells were incubated with a solution of FBP in PBS and washed three times with PBS after removal of the incubation mixture. […] The specifically bound fraction of folic acid was determined by a similar method as described for ^125I-FBP, correcting for the faction of ^3H-FA retained in the wells that were preincubated with folic acid. […]
The specifically bound ^3H-FA was plotted against the concentration of ^3H-FA in a Scatchard type plot (FIG. 1). […] The following values were determined from the binding assay: […]

T1 sequence (P02702 20-234): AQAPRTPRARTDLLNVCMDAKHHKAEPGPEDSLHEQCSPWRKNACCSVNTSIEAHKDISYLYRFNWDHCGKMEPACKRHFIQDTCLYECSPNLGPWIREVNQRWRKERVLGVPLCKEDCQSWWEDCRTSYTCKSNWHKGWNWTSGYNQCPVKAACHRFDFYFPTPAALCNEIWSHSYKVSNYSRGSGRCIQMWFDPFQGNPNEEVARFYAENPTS

Consider ^3H-Folic acid [^3H-FA], for which the Ka is on record as 2×10^8.
